Data on 30 molecules can be found in patent US12448388B2, “PRMT5 inhibitors and uses thereof” (Gilead Sciences, Inc., priority 2023, dated 2025).

Like-named read-outs stand apart in the source and are kept apart here.

This test deals with HCT116 MTAP-deleted cell lines. The test can be described thus: Cell viability assay (CellTiter-Glo, 7 days), HCT116 MTAP-deleted. It counts as cell-based. As to conditions: Homo sapiens, HCT-116, HCT116 MTAP-deleted, class symbols, read-out: CC50. The procedure, abridged:
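CC50 values come from 7-day CellTiter-Glo viability measurements on cells exposed to a dose range of PRMT5 inhibitors dispensed from DMSO stocks.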
On the technique in general: Cellular ATP, detected with luciferase, serves as a proxy for viable cell number.

In general, CC50 refers to the concentration giving 50% cytotoxicity. For `Nc1nc2cc(F)c(C(=O)N(Cc3ccc(C(F)(F)F)cc3F)c3cnn(C4CC4)c3)cc2n2cncc12` [Ff-276, 4-amino-N-(1-cyclopropyl-1H-pyrazol-4-yl)-7-fluoro-N-(2-fluoro-4-(trifluoromethyl)benzyl)imidazo[1,5-a]quinoxaline-8-carboxamide], the 50% cytotoxic concentration (CC50) (cell viability) is < 100 nM.

On to `C[C@@H](c1ccc(C(F)(F)F)cc1F)N(C)C(=O)c1cc2c(cc1F)nc(N)c1cncn12` [Ff-533, (S)-4-amino-7-fluoro-N-(1-(2-fluoro-4-(trifluoromethyl)phenyl)ethyl)-N-methylimidazo[1,5-a]quinoxaline-8-carboxamide], for which the cytotoxic concentration (CC50) (cell viability assay) is 100 to 1000 nM.

Turning to `CC1(N(Cc2ccc(C(F)(F)F)cc2F)C(=O)c2ccc3nc(N)c4cncn4c3c2)COC1` [Ff-270, 4-amino-N-(2-fluoro-4-(trifluoromethyl)benzyl)-N-(3-methyloxetan-3-yl)imidazo[1,5-a]quinoxaline-8-carboxamide], the half-maximal cytotoxic concentration (CC50) (cell viability) was 100 to 1000 nM.

As for `CN(C(=O)c1cc2c(cc1F)nc(N)c1cncn12)[C@@H]1COc2cc(C#CC3(F)CCOC3)ccc21` (stereo partly drawn) [Ff-446, 4-amino-7-fluoro-N-[(3S)-6-[2-(3-fluorotetrahydrofuran-3-yl)ethynyl]-2,3-dihydrobenzofuran-3-yl]-N-methyl-imidazo[1,5-a]quinoxaline-8-carboxamide], where the note is “cell viability assay”, the half-maximal cytotoxic concentration (CC50) was < 100 nM.

For the molecule `CN(C(=O)c1cc2c(cc1F)nc(N)c1cncn12)[C@H]1c2ccc(Br)cc2[C@@H]2C[C@@H]21` [Ff-330, 4-amino-N-((1aR,6R,6aS)-3-bromo-1,1a,6,6a-tetrahydrocyclopropa[a]inden-6-yl)-7-fluoro-N-methylimidazo[1,5-a]quinoxaline-8-carboxamide], the CC50 (cell viability) is 100 to 1000 nM.

With `Nc1nc2cc(F)c(C(=O)N(Cc3ccc(-c4cnn(C(F)F)c4)cc3F)C34CC(C3)C4)cc2n2cncc12` [Ff-205, 4-amino-N-(bicyclo[1.1.1]pentan-1-yl)-N-(4-(1-(difluoromethyl)-1H-pyrazol-4-yl)-2-fluorobenzyl)-7-fluoroimidazo[1,5-a]quinoxaline-8-carboxamide], the CC50 (cell viability) was < 100 nM.

In the case of `CN(C(=O)c1cc2c(cc1F)nc(N)c1cncn12)[C@@H]1COc2cc(-c3cnn(C4COC4)c3)ccc21` [Ff-145, (S)-4-amino-7-fluoro-N-methyl-N-(6-(1-(oxetan-3-yl)-1H-pyrazol-4-yl)-2,3-dihydrobenzofuran-3-yl)imidazo[1,5-a]quinoxaline-8-carboxamide], under “cell viability”, the CC50 was < 100 nM.

As for `C[C@H]1CN(C(=O)c2cc3c(cn2)nc(N)c2cncn23)[C@H]2c3cc(F)c(OC(F)(F)F)cc3C[C@H]2O1` (single isomer, unassigned) [Ff-196], for the setting “cell viability”, the CC50 was < 100 nM.

`C[C@H]1CN(C(=O)c2cc3c(cc2F)nc(N)c2cncn23)[C@H]2c3ccccc3C[C@H]2O1` (racemic) [Ff-55, Rac-(4-amino-7-fluoroimidazo[1,5-a]quinoxalin-8-yl)((2S,4aS,9aR)-2-methyl-2,3,9,9a-tetrahydroindeno[2,1-b][1,4]oxazin-4(4aH)-yl)methanone]: the half-maximal cytotoxic concentration (CC50) (cell viability) was < 100 nM.

Take `CN(C(=O)c1cc2c(cc1F)nc(N)c1cncn12)[C@@H]1COc2cc(-c3cnn(C)c3)ccc21` [Ff-214, (S)-4-amino-7-fluoro-N-methyl-N-(6-(1-methyl-1H-pyrazol-4-yl)-2,3-dihydrobenzofuran-3-yl)imidazo[1,5-a]quinoxaline-8-carboxamide]: under “cell viability”, the cytotoxic concentration (CC50) was < 100 nM.

As for `CN(C(=O)c1cc2c(cc1F)nc(N)c1cncn12)C1COCc2cc(C(F)(F)F)ccc21` (stereo not drawn) [Ff-39, 4-amino-7-fluoro-N-methyl-N-(7-(trifluoromethyl)isochroman-4-yl)imidazo[1,5-a]quinoxaline-8-carboxamide], the 50% cytotoxic concentration (CC50) (cell viability) is < 100 nM.

Turning to `Nc1nc2cc(Cl)c(C(=O)N3CCO[C@@H]4Cc5cc(C(F)(F)F)ccc5[C@@H]43)cc2n2cncc12` (racemic) [Ff-35, Racemic (4-amino-7-chloroimidazo[1,5-a]quinoxalin-8-yl)((4aS,9aR)-7-(trifluoromethyl)-2,3,9,9a-tetrahydroindeno[2,1-b][1,4]oxazin-4(4aH)-yl)methanone], under “cell viability”, the CC50 is < 100 nM.

Regarding `C[C@H]1CN(C(=O)c2cc3c(cc2F)nc(N)c2cncn23)[C@H]2c3ccc(-c4cnn(C(F)F)c4)cc3C[C@H]2O1` [Ff-96, (4-amino-7-fluoroimidazo[1,5-a]quinoxalin-8-yl)((2S,4aS,9aR)-7-(1-(difluoromethyl)-1H-pyrazol-4-yl)-2-methyl-2,3,9,9a-tetrahydroindeno[2,1-b][1,4]oxazin-4(4aH)-yl)methanone], the CC50 (cell viability) was < 100 nM.

With `CN(C(=O)c1cc2c(cc1F)nc(N)c1cncn12)[C@@H](c1ccc(OC(F)(F)F)cc1F)C(F)F` [Fb-11, (S)-4-amino-N-(2,2-difluoro-1-(2-fluoro-4-(trifluoromethoxy)phenyl)ethyl)-7-fluoro-N-methylimidazo[1,5-a]quinoxaline-8-carboxamide], the CC50 (cell viability) was < 100 nM.

Regarding `CN(C(=O)c1cc2c(cc1F)nc(N)c1cncn12)[C@@H](c1ccc(C(F)(F)F)cc1)C(F)F` [Fb-9, (S)-4-amino-N-(2,2-difluoro-1-(4-(trifluoromethyl)phenyl)ethyl)-7-fluoro-N-methylimidazo[1,5-a]quinoxaline-8-carboxamide], for the setting “cell viability”, the CC50 was < 100 nM.

On to `Nc1nc2cc(F)c(C(=O)N(Cc3ccc(-n4ccnc4)cc3Cl)C34CC(C3)C4)cc2n2cncc12` [Ff-53, 4-amino-N-(bicyclo[1.1.1]pentan-1-yl)-N-(2-chloro-4-(1H-imidazol-1-yl)benzyl)-7-fluoroimidazo[1,5-a]quinoxaline-8-carboxamide], for which the CC50 (cell viability) was < 100 nM.

Consider `Nc1nc2cc(F)c(C(=O)N3CCO[C@@H]4Cc5cc(C6CC6)ccc5[C@@H]43)cc2n2cncc12` [Ff-236, (4-amino-7-fluoroimidazo[1,5-a]quinoxalin-8-yl)((4aS,9aR)-7-cyclopropyl-2,3,9,9a-tetrahydroindeno[2,1-b][1,4]oxazin-4(4aH)-yl)methanone], for which, under “cell viability”, the CC50 is 100 to 1000 nM.

For the molecule `CN(C(=O)c1cc2c(cc1F)nc(N)c1cncn12)[C@@H]1c2ccc(Br)cc2[C@@H]2C[C@H]12` [Ff-312, 4-amino-N-((1aR,6S,6aS)-3-bromo-1,1a,6,6a-tetrahydrocyclopropa[a]inden-6-yl)-7-fluoro-N-methylimidazo[1,5-a]quinoxaline-8-carboxamide], for the setting “cell viability”, the CC50 lay within 100 to 1000 nM.

For `CC1COC2Cc3cc(C(F)(F)F)ccc3C2N1C(=O)c1cc2c(cc1F)nc(N)c1cncn12` (racemic) [Ff-85, (4-amino-7-fluoroimidazo[1,5-a]quinoxalin-8-yl)(3-methyl-7-(trifluoromethyl)-2,3,9,9a-tetrahydroindeno[2,1-b][1,4]oxazin-4(4aH)-yl)methanone], under “cell viability”, the CC50 was < 100 nM.

Regarding `Nc1nc2cc(F)c(C(=O)N3CC4CCC(O4)C3c3ccc(C(F)(F)F)cn3)cc2n2cncc12` (stereo not drawn) [Ff-511, (4-amino-7-fluoroimidazo[1,5-a]quinoxalin-8-yl)(2-(5-(trifluoromethyl)pyridin-2-yl)-8-oxa-3-azabicyclo[3.2.1]octan-3-yl)methanone], for the setting “cell viability assay”, the 50% cytotoxic concentration (CC50) was 100 to 1000 nM.

On to `CN(C(=O)c1cc2c(cc1F)nc(N)c1cncn12)[C@@H]1COc2cc(OC(F)(F)F)ccc21` (single isomer, unassigned) [Ff-557], for which, where the note is “cell viability assay”, the CC50 is < 100 nM.

Take `Nc1nc2cc(F)c(C(=O)N3CCC[C@@H]4Oc5cc(OC(F)(F)F)ccc5[C@@H]43)cc2n2cncc12` (single isomer, unassigned) [Ff-395]: the CC50 (cell viability assay) was < 100 nM.

Regarding `CN(C(=O)c1cc2c(cc1F)nc(N)c1cncn12)[C@@H]1COc2cc(C3CC(C#N)C3)ccc21` (stereo partly drawn) [Ff-465, (S)-4-amino-N-(6-(3-cyanocyclobutyl)-2,3-dihydrobenzofuran-3-yl)-7-fluoro-N-methylimidazo[1,5-a]quinoxaline-8-carboxamide], where the note is “cell viability assay”, the CC50 was < 100 nM.

On to `CN(C(=O)c1cc2c(cc1F)nc(N)c1cncn12)[C@@H]1COc2cc(C#CC(C)(C)O)ccc21` [Ff-442, 4-amino-7-fluoro-N-[(3S)-6-(3-hydroxy-3-methyl-but-1-ynyl)-2,3-dihydrobenzofuran-3-yl]-N-methyl-imidazo[1,5-a]quinoxaline-8-carboxamide], for which the CC50 (cell viability assay) is < 100 nM.

On to `Nc1nc2cc(F)c(C(=O)N3CCC[C@@H]4Oc5cc(C(F)(F)F)ccc5[C@@H]43)cc2n2c(Br)ncc12` (single isomer, unassigned) [Ff-495], for which the CC50 (cell viability assay) lay within 100 to 1000 nM.

Take `Cc1ncn2c1c(N)nc1cc(Cl)c(C(=O)N3CCC[C@@H]4Oc5cc(C(F)(F)F)ncc5[C@@H]43)cc12` [Fg-19, (4-amino-7-chloro-3-methylimidazo[1,5-a]quinoxalin-8-yl)((4aS,9bS)-7-(trifluoromethyl)-3,4,4a,9b-tetrahydrofuro[3,2-b:4,5-c′]dipyridin-1(2H)-yl)methanone]: the CC50 (cell viability assay) was < 100 nM.

Consider `CN(C(=O)c1cc2c(cc1F)nc(N)c1cncn12)[C@@H]1COc2cc(-c3ccc(C(F)(F)F)cn3)ccc21` [Ff-238, (S)-4-amino-7-fluoro-N-methyl-N-(6-(5-(trifluoromethyl)pyridin-2-yl)-2,3-dihydrobenzofuran-3-yl)imidazo[1,5-a]quinoxaline-8-carboxamide], for which the CC50 (cell viability) was < 100 nM.

`CN(C(=O)c1cc2c(cc1F)nc(N)c1cnc(Br)n12)[C@@H]1COc2cc(C(F)(F)F)ccc21` (single isomer, unassigned) [Ff-493]: where the note is “cell viability assay”, the cytotoxic concentration (CC50) was in the range of 100 to 1000 nM.

As for `CN1CCN(C(=O)c2cc3c(cc2F)nc(N)c2cncn23)C(c2ccc(C(F)(F)F)cn2)C1` (stereo not drawn) [Ff-136, (4-amino-7-fluoroimidazo[1,5-a]quinoxalin-8-yl)(4-methyl-2-(5-(trifluoromethyl)pyridin-2-yl)piperazin-1-yl)methanone], the half-maximal cytotoxic concentration (CC50) (cell viability) was 100 to 1000 nM.

As to `Nc1nc2cc(F)c(C(=O)N3CCO[C@@H]4Cc5ccccc5[C@@H]43)cc2n2cncc12` (racemic) [Ff-36, Racemic(4-amino-7-fluoroimidazo[1,5-a]quinoxalin-8-yl)((4aS,9aR)-2,3,9,9a-tetrahydroindeno[2,1-b][1,4]oxazin-4(4aH)-yl)methanone], under “cell viability”, the CC50 lay in the range of 100 to 1000 nM.
